Experimental data published in patent US20190329063A1, “METHOD FOR MODIFYING THE T[…] OF DRUGS” (priority 2016, published 2019).

Columns and labels:
[1] = test system: subjects medicated with MPH; experiment: Conjunctive continuous performance task (CPT) after half dose MPH with cognitive induction or music control; type: in vivo, human; settings: half dose MPH PO
Source text: Reference is now made to FIGS. 7A-7B, depicting validation experiments for testing whether FPC improves attention functions of subjects medicated with MPH, according to some embodiments of the invention. In some embodiments, the experiment includes three sessions. In some embodiments, in the first session 702, the subjects performed a conjunctive continuous performance task (CPT, Shalev et al., 2011). In some embodiments, this test yields measures of sustained attention, which are generalized across different sensory modalities.
According to some embodiments, in the second and the third sessions 706, the subjects took half of their prescribed drug 708 dose by per os (PO) administration. In some embodiments, in the first epoch they went through either a cognitive induction condition 714 during which they performed the NeuroTrax tasks or a control condition 712 during which they listened to a piece of their favorite music. In some embodiments, these 30 min conditions were followed by a 20-minutes rest epoch 716, for example to allow for the testing of an enduring effect of the FPC. […]
According to some exemplary embodiments, FPC effect was measured for the sustained attention measures of average 722 and standard deviation 724 response time, which show high reliability and validity (Shalev et al., 2011). […]

ADHD patients = experiment: Real-time fMRI neurofeedback of right-IFG after Ritalin IR with CPTi, CPT and Strooplike tasks; type: in vivo, human; settings: 0.1-0.2 mg/kg Ritalin IR; right-IFG Up vs Down regulation; 24 ADHD patients
Experimental: According to some exemplary embodiments, 24 ADHD patients participated in a three session within-subject experimental design.
In some embodiments, taking the known pharmacokinetic properties of MPH into account, the neurofeedback paradigm was scheduled to begin towards the estimated peak concentration of MPH in brain blood plasma (45 min), and last for 40 minutes, well into the drug's plateau of concentration phase, thus assuming a maximum effect of drug delivery and absorption to the rIFG and related brain regions. Additionally, cognitive performance was evaluated before administration and following the NF task via three behavioral tasks (CPTi, CPT and Strooplike, measuring response inhibition, sustained attention and executive attention, respectively; Shalev-Mevorach et al. 2005; 2011).

[2] = after administration of Ritalin IR; cited from earlier work

COC(=O)C(c1ccccc1)C1CCCCN1 (stereo not shown) [MPH, Methylphenidate]
improvement of sustained attention measures, cognitive induction task relative to control task (music) ([1]; two subjects): higher | sustained attention measures of average and standard deviation response time (CPT) ([1]; two subjects (males)): improved | effects on sustained attention (CPT task) and response inhibition (CPTi task) following the up regulation condition (ADHD patients): substantially larger effects | estimated peak concentration of MPH in brain blood plasma (time) [2]: 45 min
